Laboratory results reported in patent publication US9802921B2, “Fluoromethyl-substituted pyrrole carboxamides iv” (Grünenthal GmbH, priority 2013, dated 2017).

Target: T1, Human CaV2.2 channels (Homo sapiens, UniProt Q00975)
T1 construct: expressed in transfected cells
Test: Fluorescent assay for CaV2.2 channels using potassium depolarization to induce channel opening (FLIPR, Fluo 4)
Format: cell-based
Conditions: read-out: Activity Category: %-Inhib (CaV2.2) @3 μM @30 mM KCl; 3 μM test compound; 30 mM KCl as printed; HEK293 cells stably expressing human CaV2.2
Procedure, shortened: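 HEK293 cells stably co-expressing human CaV2.2 with α2δ and β subunits plus Kir2.3, Fluo-4 loaded; compounds preincubated 15 min at 25 °C in 1 mM or 30 mM KCl buffer (inactivated state), pH 7.4. Depolarized by KCl addition; baseline-normalized peak fluorescence (ex 480/em 535 nm) gave inhibition.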

T1 sequence (Q00975 whole entry): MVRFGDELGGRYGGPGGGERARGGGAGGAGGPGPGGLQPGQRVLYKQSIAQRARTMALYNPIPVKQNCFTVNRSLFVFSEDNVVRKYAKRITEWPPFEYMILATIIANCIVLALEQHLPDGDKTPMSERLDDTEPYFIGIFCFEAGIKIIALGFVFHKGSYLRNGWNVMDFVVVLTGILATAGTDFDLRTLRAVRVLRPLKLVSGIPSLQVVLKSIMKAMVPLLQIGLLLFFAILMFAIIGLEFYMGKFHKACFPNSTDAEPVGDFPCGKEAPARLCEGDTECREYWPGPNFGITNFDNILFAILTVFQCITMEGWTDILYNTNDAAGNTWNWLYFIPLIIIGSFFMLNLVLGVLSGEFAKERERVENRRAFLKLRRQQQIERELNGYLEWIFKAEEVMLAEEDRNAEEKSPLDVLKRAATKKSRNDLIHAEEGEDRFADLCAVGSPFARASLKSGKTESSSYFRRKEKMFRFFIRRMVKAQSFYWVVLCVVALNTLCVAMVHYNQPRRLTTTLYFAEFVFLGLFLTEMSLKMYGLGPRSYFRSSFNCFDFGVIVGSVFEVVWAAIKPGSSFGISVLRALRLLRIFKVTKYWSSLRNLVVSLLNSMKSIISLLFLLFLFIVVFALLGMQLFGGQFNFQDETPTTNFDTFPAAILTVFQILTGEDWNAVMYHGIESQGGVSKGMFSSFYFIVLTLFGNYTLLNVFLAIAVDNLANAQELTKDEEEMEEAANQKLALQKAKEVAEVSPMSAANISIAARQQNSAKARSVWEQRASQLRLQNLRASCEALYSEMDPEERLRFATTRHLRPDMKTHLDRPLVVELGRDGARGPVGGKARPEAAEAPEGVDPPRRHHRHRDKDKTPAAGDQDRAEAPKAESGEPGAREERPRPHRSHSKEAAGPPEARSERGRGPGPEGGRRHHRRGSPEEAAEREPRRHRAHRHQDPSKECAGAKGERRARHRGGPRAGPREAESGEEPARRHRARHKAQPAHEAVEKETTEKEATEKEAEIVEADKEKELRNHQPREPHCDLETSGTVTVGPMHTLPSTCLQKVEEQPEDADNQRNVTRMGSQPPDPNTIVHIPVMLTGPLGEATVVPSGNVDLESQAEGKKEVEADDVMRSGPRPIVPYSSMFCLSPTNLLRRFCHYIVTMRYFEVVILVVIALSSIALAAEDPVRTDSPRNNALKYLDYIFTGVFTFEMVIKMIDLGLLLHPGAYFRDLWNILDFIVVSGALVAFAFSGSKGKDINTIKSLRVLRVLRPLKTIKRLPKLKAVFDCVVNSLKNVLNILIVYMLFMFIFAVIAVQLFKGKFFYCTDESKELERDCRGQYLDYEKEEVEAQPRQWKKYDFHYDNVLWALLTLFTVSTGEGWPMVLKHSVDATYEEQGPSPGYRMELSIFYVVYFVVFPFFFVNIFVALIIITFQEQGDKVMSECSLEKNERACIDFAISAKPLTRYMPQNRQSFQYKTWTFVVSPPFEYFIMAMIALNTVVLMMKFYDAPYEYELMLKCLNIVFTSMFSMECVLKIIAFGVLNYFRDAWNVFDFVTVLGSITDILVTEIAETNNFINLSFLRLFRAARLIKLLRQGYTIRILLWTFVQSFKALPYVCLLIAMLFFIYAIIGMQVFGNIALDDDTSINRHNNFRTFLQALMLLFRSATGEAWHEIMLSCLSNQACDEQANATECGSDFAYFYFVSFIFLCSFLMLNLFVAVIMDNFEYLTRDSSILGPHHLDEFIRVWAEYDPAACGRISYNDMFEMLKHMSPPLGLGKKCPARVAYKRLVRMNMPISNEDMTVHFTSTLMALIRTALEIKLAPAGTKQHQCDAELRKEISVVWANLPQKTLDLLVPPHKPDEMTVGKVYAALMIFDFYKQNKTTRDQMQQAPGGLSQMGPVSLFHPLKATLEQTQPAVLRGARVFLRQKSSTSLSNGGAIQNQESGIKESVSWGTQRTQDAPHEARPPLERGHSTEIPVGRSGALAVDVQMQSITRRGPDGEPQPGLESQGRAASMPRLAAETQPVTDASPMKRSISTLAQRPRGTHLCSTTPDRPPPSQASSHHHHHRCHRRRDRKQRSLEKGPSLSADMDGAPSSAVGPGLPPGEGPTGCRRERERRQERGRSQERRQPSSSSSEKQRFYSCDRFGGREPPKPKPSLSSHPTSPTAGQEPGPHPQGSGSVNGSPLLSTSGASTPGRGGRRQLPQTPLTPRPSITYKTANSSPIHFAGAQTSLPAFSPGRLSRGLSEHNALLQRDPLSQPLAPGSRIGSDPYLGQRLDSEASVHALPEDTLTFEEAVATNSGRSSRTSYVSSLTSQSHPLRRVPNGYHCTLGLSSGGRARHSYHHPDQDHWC
T1 sequence (P54289 25-1103, further chain): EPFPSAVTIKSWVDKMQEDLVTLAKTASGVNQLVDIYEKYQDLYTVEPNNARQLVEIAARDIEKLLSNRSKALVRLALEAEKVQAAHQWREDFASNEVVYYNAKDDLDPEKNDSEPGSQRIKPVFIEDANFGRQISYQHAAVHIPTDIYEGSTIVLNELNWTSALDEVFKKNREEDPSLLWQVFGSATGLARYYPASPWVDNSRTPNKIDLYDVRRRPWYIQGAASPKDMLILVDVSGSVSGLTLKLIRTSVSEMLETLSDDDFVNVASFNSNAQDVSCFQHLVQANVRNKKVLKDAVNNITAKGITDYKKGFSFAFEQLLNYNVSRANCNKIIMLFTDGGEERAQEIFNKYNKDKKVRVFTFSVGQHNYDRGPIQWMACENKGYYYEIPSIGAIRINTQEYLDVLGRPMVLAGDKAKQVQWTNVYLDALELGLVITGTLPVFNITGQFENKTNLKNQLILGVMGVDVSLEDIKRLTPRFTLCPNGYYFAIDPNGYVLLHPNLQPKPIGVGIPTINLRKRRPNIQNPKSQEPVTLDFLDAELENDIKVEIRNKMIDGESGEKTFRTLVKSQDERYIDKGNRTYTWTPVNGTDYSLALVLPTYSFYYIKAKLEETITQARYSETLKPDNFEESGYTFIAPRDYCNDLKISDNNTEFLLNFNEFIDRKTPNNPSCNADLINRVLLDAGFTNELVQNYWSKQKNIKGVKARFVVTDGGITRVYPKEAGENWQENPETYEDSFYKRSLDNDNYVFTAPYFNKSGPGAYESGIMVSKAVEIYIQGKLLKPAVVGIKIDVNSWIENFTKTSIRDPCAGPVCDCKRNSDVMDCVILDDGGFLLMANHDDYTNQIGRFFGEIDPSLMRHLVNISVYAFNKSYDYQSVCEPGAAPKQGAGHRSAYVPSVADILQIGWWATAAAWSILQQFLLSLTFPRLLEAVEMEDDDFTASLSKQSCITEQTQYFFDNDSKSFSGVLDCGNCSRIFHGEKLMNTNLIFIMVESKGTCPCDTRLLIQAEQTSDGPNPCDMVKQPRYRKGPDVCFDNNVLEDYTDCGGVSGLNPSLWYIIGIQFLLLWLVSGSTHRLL
T1 sequence (P54284 whole entry, further chain): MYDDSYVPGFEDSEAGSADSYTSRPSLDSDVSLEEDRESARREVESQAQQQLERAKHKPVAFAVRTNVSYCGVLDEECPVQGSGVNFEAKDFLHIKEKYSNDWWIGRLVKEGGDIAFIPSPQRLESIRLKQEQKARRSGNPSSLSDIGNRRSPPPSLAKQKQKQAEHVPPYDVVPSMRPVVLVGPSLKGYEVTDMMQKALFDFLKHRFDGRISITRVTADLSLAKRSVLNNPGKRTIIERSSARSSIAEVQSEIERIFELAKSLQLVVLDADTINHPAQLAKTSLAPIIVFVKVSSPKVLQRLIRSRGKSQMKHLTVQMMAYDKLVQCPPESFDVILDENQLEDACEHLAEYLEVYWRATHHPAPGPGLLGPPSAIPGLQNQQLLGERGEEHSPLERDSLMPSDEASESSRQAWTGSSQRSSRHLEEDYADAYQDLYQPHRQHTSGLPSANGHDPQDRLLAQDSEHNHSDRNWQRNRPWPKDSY

Compound: Cc1c(-c2ccc(Cl)cc2)c(C(=O)N(C)C(C)C)n(Cc2nncs2)c1C(F)(F)F [Example 069, 3-(4-Chlorophenyl)-N-isopropyl-N,4-dimethyl-1-([1,3,4]thiadiazol-2-yl-methyl)-5-(trifluoromethyl)-1H-pyrrole-2-carboxylic acid amide]
- inhibition at 3 µM: > 95%
